Test results taken from patent publication US20020055099A1, “SEQUENTIAL CDNA LIBRARY AND USES THEREOF” (priority 1999, published 2002).

Tests used:
[1] = test system: HO-1 human melanoma cells; assay: SCLA reverse Northern hybridization of arrayed subtracted cDNA library with mRNAs from treated HO-1 cells; type: cell-based; conditions: IFN-β 2000 units/ml, MEZ 10 ng/ml, staurosporine 500 ng/ml, temporally pooled mRNAs
Procedure: Staurosporine-treated HO-1 cells were harvested at 4, 8 and 24 hrs after treatment.
For reverse Northern analysis, RNA samples from each time point were pooled and 20 μg of pooled total RNA was reverse transcribed in two reactions into a ^32P-labeled first strand cDNA probe. After heating at 70° C. for 10 min and quenching on ice for two min, a mixture consisting of 10 pmole of T13V and 10 μg of the total RNA mixture in 50 mM Tris-HCl (pH 8.3), 75 mM KCl, 3 mM MgCl2, 10 mM DTT, 0.5 mM DATP, 0.5 mM dGTP, 0.5 mM dTTP, 0.02 mM dCTP, 5 U RNase inhibitor (Gibco BRL), 100 μCi dCTP (3000 Ci/mmole from Amersham) and 200 U Superscript RT II (Gibco BRL) was added (final 25 μl). The reaction mixture was incubated at 42° C. for one hr and at 37° C. for 30 min after addition of 2 μl of RNase H (10U, Gibco BRL). The membrane was hybridized at 42° C. overnight in a 50% formamide hybridization solution. The hybridized membrane was washed 2× at room temperature for 15 min with 2× SSC containing 0.1% SDS and then washed for at least one hr at 55° C. with 0.1× SSC containing 0.1% SDS. The membranes were exposed for different times to autoradiography.
After subtraction hybridization, a temporally spaced amplified subtracted (TSS) cDNA library (consisting of 4,979 plaques) was picked and plated individually (arrayed) in thirteen 384-well microtiter plates. […] This approach permitted the identification of cDNAs displaying altered expression as a function of the specific treatment protocol.

[2] = test system: HO-1 human melanoma cells; conditions: HO-1 cells, cited from earlier work
[3] = IFN-β 2000 units/ml, MEZ 10 ng/ml where printed

## CN[C@@H]1C[C@H]2O[C@@](C)([C@@H]1OC)n1c3ccccc3c3c4c(c5c6ccccc6n2c5c31)C(=O)NC4 [staurosporine]
[1]
  clones induced only by the agent (uniquely positive after a single treatment protocol): 25 clones
  positive clones (DMAC) identified after treatment, of 427 positive clones: 107 clones
[2]
  apoptosis: induces apoptosis

## C=C(C)[C@@]12O[C@@]3(c4ccccc4)O[C@@H]1[C@@H]1[C@@H]4O[C@]4(CO)[C@@H](O)[C@]4(O)C(=O)C(C)=C[C@H]4[C@@]1(O3)[C@H](C)[C@H]2OC(=O)/C=C/C=C/c1ccccc1 [MEZ, mezerein]
[1]
  clones induced only by the agent (uniquely positive after a single treatment protocol): 12 clones
[2]; [3]
  effect on HO-1 cell growth: growth suppression
  melanin synthesis / differentiation marker: elevated melanin levels
[2]; MEZ 10 ng/ml
  morphological differentiation: exhibit morphological differentiation
